Assays:
Format in all cases: in vivo
[1] = test system: DIGSA: large crabgrass (Digitaria sanguinalis); experiment: Post-emergent herbicidal test, large crabgrass; conditions: post-emergence, 336 h, 14 days after application, read-out: Visual Growth Reduction (%) 14 Days After Application DIGSA; for pest or weed control at 17.5 g/ha: 17.5 g ai/ha; for pest or weed control at 35 g/ha: 35 g ai/ha; for pest or weed control at 70 g/ha: 70 g ai/ha; for pest or weed control at 140 g/ha: 140 g ai/ha
Method in brief: (§1)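 Greenhouse-grown plants at the first or second true leaf stage (7-21 d, ~15 h photoperiod, 23-29° C day) were sprayed overhead at 187 L/ha with compound in acetone/DMSO-based spray solution containing crop oil concentrate and surfactant. Injury was scored visually after 14 d, 0-100% versus untreated plants.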

[2] = test system: BRSNN: oilseed rape, canola (Brassica napus); experiment: Post-emergent herbicidal test, oilseed rape; conditions: post-emergence, 336 h, 14 days after application, read-out: Visual Growth Reduction (%) 14 Days After Application BRSNN; for pest or weed control at 17.5 g/ha: 17.5 g ai/ha; for pest or weed control at 35 g/ha: 35 g ai/ha; for pest or weed control at 70 g/ha: 70 g ai/ha; for pest or weed control at 140 g/ha: 140 g ai/ha
Method in brief: as §1

[3] = test system: SETFA: giant foxtail (Setaria faberi); experiment: Post-emergent herbicidal test, giant foxtail; conditions: post-emergence, 336 h, 14 days after application, read-out: Visual Growth Reduction (%) 14 Days After Application SETFA; for pest or weed control at 17.5 g/ha: 17.5 g ai/ha; for pest or weed control at 35 g/ha: 35 g ai/ha; for pest or weed control at 70 g/ha: 70 g ai/ha; for pest or weed control at 140 g/ha: 140 g ai/ha
Method in brief: as §1

[4] = test system: ABUTH: velvetleaf (Abutilon theophrasti); experiment: Post-emergent herbicidal test, velvetleaf; conditions: post-emergence, 336 h, 14 days after application, read-out: Visual Growth Reduction (%) 14 Days After Application ABUTH; for pest or weed control at 17.5 g/ha: 17.5 g ai/ha; for pest or weed control at 35 g/ha: 35 g ai/ha; for pest or weed control at 70 g/ha: 70 g ai/ha; for pest or weed control at 140 g/ha: 140 g ai/ha
Method in brief: as §1

[5] = test system: SORVU: shattercane (Sorghum bicolor); experiment: Post-emergent herbicidal test, shattercane; conditions: post-emergence, 336 h, 14 days after application, read-out: Visual Growth Reduction (%) 14 Days After Application SORVU; for pest or weed control at 17.5 g/ha: 17.5 g ai/ha; for pest or weed control at 35 g/ha: 35 g ai/ha; for pest or weed control at 70 g/ha: 70 g ai/ha; for pest or weed control at 140 g/ha: 140 g ai/ha
Method in brief: as §1

[6] = test system: EPHHL: wild poinsettia (Euphorbia heterophylla); experiment: Post-emergent herbicidal test, wild poinsettia; conditions: post-emergence, 336 h, 14 days after application, read-out: Visual Growth Reduction (%) 14 Days After Application EPHHL; for pest or weed control at 17.5 g/ha: 17.5 g ai/ha; for pest or weed control at 35 g/ha: 35 g ai/ha; for pest or weed control at 70 g/ha: 70 g ai/ha; for pest or weed control at 140 g/ha: 140 g ai/ha
Method in brief: as §1

[7] = test system: CYPES: yellow nutsedge (Cyperus esculentus); experiment: Post-emergent herbicidal test, yellow nutsedge; conditions: post-emergence, 336 h, 14 days after application, read-out: Visual Growth Reduction (%) 14 Days After Application CYPES; for pest or weed control at 17.5 g/ha: 17.5 g ai/ha; for pest or weed control at 35 g/ha: 35 g ai/ha; for pest or weed control at 70 g/ha: 70 g ai/ha; for pest or weed control at 140 g/ha: 140 g ai/ha
Method in brief: as §1

[8] = test system: VIOTR: wild violet (Viola tricolor); experiment: Post-emergent herbicidal test, wild violet; conditions: post-emergence, 336 h, 14 days after application, read-out: Visual Growth Reduction (%) 14 Days After Application VIOTR; for pest or weed control at 17.5 g/ha: 17.5 g ai/ha; for pest or weed control at 35 g/ha: 35 g ai/ha; for pest or weed control at 70 g/ha: 70 g ai/ha; for pest or weed control at 140 g/ha: 140 g ai/ha
Method in brief: as §1

[9] = test system: ECHCG: barnyardgrass (Echinochloa crus-galli); experiment: Post-emergent herbicidal test, barnyardgrass; conditions: post-emergence, 336 h, 14 days after application, read-out: Visual Growth Reduction (%) 14 Days After Application ECHCG; for pest or weed control at 17.5 g/ha: 17.5 g ai/ha; for pest or weed control at 35 g/ha: 35 g ai/ha; for pest or weed control at 70 g/ha: 70 g ai/ha; for pest or weed control at 140 g/ha: 140 g ai/ha
Method in brief: as §1

[10] = test system: CIRAR: Canada thistle (Cirsium arvense); experiment: Post-emergent herbicidal test, Canada thistle; conditions: post-emergence, 336 h, 14 days after application, read-out: Visual Growth Reduction (%) 14 Days After Application CIRAR; for pest or weed control at 17.5 g/ha: 17.5 g ai/ha; for pest or weed control at 35 g/ha: 35 g ai/ha; for pest or weed control at 70 g/ha: 70 g ai/ha; for pest or weed control at 140 g/ha: 140 g ai/ha
Method in brief: as §1

[11] = test system: IPOHE: ivyleaf morningglory (Ipomoea hederacea); experiment: Post-emergent herbicidal test, ivyleaf morningglory; conditions: post-emergence, 336 h, 14 days after application, read-out: Visual Growth Reduction (%) 14 Days After Application IPOHE; for pest or weed control at 17.5 g/ha: 17.5 g ai/ha; for pest or weed control at 35 g/ha: 35 g ai/ha; for pest or weed control at 70 g/ha: 70 g ai/ha; for pest or weed control at 140 g/ha: 140 g ai/ha
Method in brief: as §1

COC(=O)c1nc(-c2ccc(F)c3c2OC(F)(F)O3)c(F)c(N)c1Cl [Compound 7]
pest or weed control at 17.5 g/ha [1]: 0% | pest or weed control at 35 g/ha [1]: 0% | pest or weed control at 70 g/ha [1]: 0% | pest or weed control at 140 g/ha [1]: 0% | pest or weed control at 17.5 g/ha [2]: 50% | pest or weed control at 35 g/ha [2]: 60% | pest or weed control at 70 g/ha [2]: 80% | pest or weed control at 140 g/ha [2]: 85% | pest or weed control at 17.5 g/ha [3]: 0% | pest or weed control at 35 g/ha [3]: 0% | pest or weed control at 70 g/ha [3]: 0% | pest or weed control at 140 g/ha [3]: 10% | pest or weed control at 17.5 g/ha [4]: 50% | pest or weed control at 35 g/ha [4]: 70% | pest or weed control at 70 g/ha [4]: 75% | pest or weed control at 140 g/ha [4]: 85% | pest or weed control at 17.5 g/ha [5]: 0% | pest or weed control at 35 g/ha [5]: 0% | pest or weed control at 70 g/ha [5]: 0% | pest or weed control at 140 g/ha [5]: 0% | pest or weed control at 17.5 g/ha [6]: 0% | pest or weed control at 35 g/ha [6]: 0% | pest or weed control at 70 g/ha [6]: 10% | pest or weed control at 140 g/ha [6]: 20% | pest or weed control at 17.5 g/ha [7]: 0% | pest or weed control at 35 g/ha [7]: 10% | pest or weed control at 70 g/ha [7]: 30% | pest or weed control at 140 g/ha [7]: 40% | pest or weed control at 17.5 g/ha [8]: 5% | pest or weed control at 35 g/ha [8]: 10% | pest or weed control at 70 g/ha [8]: 40% | pest or weed control at 140 g/ha [8]: 50% | pest or weed control at 17.5 g/ha [9]: 0% | pest or weed control at 35 g/ha [9]: 0% | pest or weed control at 70 g/ha [9]: 0% | pest or weed control at 140 g/ha [9]: 0% | pest or weed control at 17.5 g/ha [10]: 60% | pest or weed control at 35 g/ha [10]: 70% | pest or weed control at 70 g/ha [10]: 75% | pest or weed control at 140 g/ha [10]: 80% | pest or weed control at 17.5 g/ha [11]: 0% | pest or weed control at 35 g/ha [11]: 0% | pest or weed control at 70 g/ha [11]: 0% | pest or weed control at 140 g/ha [11]: 0%

COC(=O)c1nc(-c2cccc3c2OCO3)c(F)c(N)c1Cl [Compound 2]
pest or weed control at 17.5 g/ha [1]: 0% | pest or weed control at 35 g/ha [1]: 0% | pest or weed control at 70 g/ha [1]: 0% | pest or weed control at 140 g/ha [1]: 0% | pest or weed control at 17.5 g/ha [2]: 30% | pest or weed control at 35 g/ha [2]: 40% | pest or weed control at 70 g/ha [2]: 85% | pest or weed control at 140 g/ha [2]: 90% | pest or weed control at 17.5 g/ha [3]: 0% | pest or weed control at 35 g/ha [3]: 0% | pest or weed control at 70 g/ha [3]: 0% | pest or weed control at 140 g/ha [3]: 0% | pest or weed control at 17.5 g/ha [4]: 50% | pest or weed control at 35 g/ha [4]: 60% | pest or weed control at 70 g/ha [4]: 75% | pest or weed control at 140 g/ha [4]: 95% | pest or weed control at 17.5 g/ha [5]: 0% | pest or weed control at 35 g/ha [5]: 0% | pest or weed control at 70 g/ha [5]: 0% | pest or weed control at 140 g/ha [5]: 0% | pest or weed control at 17.5 g/ha [6]: 0% | pest or weed control at 35 g/ha [6]: 0% | pest or weed control at 70 g/ha [6]: 0% | pest or weed control at 140 g/ha [6]: 0% | pest or weed control at 17.5 g/ha [7]: 0% | pest or weed control at 35 g/ha [7]: 0% | pest or weed control at 70 g/ha [7]: 10% | pest or weed control at 140 g/ha [7]: 30% | pest or weed control at 17.5 g/ha [8]: 0% | pest or weed control at 35 g/ha [8]: 0% | pest or weed control at 70 g/ha [8]: 0% | pest or weed control at 140 g/ha [8]: 10% | pest or weed control at 17.5 g/ha [9]: 0% | pest or weed control at 35 g/ha [9]: 0% | pest or weed control at 70 g/ha [9]: 0% | pest or weed control at 140 g/ha [9]: 0% | pest or weed control at 17.5 g/ha [10]: 60% | pest or weed control at 35 g/ha [10]: 100% | pest or weed control at 70 g/ha [10]: 98% | pest or weed control at 140 g/ha [10]: 98% | pest or weed control at 17.5 g/ha [11]: 0% | pest or weed control at 35 g/ha [11]: 0% | pest or weed control at 70 g/ha [11]: 10% | pest or weed control at 140 g/ha [11]: 25%

Source: patent US11718604B2, “4-amino-6-(1,3-benzodioxole)picolinates and their use as herbicides” (Dow AgroSciences LLC, priority 2018, dated 2023)
